# Results from publication PMC12599236, “Itaconate utilisation by the human pathogen Pseudomonas aeruginosa requires uptake via the IctPQM TRAP transporter” (Biochemical Journal, 2025).
# Assays:
# Format in all cases: binding
# IctP (PA0884) [1] = target: T1, IctP (PA0884) (Pseudomonas aeruginosa, UniProt Q9I561); assay: intrinsic tryptophan fluorescence titration
# T1 construct: SBP domain (pa0884), recombinant from E. coli
# IctP (PA0884) [2] = target: T1, IctP (PA0884); assay: crystal structure ([…] Å); intrinsic tryptophan fluorescence titration; nanoDSF (~[…] °C shift)
# IctP (PA0884) [3] = target: T1, IctP (PA0884); assay: as above; remark: listed apart in the source
# T1 sequence (Q9I561 entry or part of it): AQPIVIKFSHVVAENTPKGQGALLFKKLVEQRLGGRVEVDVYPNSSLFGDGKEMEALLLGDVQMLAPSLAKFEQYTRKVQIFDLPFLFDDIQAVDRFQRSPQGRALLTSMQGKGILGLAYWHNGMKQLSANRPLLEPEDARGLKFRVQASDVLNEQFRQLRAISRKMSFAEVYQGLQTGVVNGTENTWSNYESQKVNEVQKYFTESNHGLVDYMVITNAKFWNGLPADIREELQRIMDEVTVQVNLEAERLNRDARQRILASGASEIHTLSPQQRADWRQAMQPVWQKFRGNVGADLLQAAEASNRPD
structure (smiles),measurement,setting,value
O=C(O)C[C@H](O)C(=O)O [L-malate],Kd,IctP (PA0884) [1],16.2 µM
"C=C(CC(=O)O)C(=O)O [itaconate, 2-methylenesuccinate]",Kd,IctP (PA0884) [2],180 µM
O=C(O)CCC(=O)O [succinate],Kd,IctP (PA0884) [3],32.6 µM
